Experimental data published in patent US20100291236A1, “OSMIUM COMPOUNDS” (THE UNIVERSITY OF WARWICK, priority 2006, published 2010).
“And” between values parts separate entries of the source, which are not always exact repeats. Identical values can stand only once. “Also recorded” adds a separate entry of the source. Like-named read-outs stand apart in the source and are kept apart here.

What was measured:
[1] = test system: human ovarian A2780 cancer cells; settings: Peacock et al, J. Am. Chem. Soc. 2006; said to be erroneous; cited from earlier work
[2] = test system: human ovarian A2780 cancer cells; test: Cytotoxicity towards A2780 cells, sulforhodamine B (SRB) assay; type: cell-based
Procedure: (§1) Experimental: Cytotoxicity Towards A2780 and A549 Human Cancer Cells. After plating, human ovarian A2780 cancer cells were treated with Os^II complexes on day 3, and human lung A549 cancer cells on day 2, at concentrations ranging from 2 μM to 50 μM. Solutions of the Os^II complexes were made up in 0.125% DMSO to assist dissolution. Cells were exposed to the complexes for 24 h, washed, supplied with fresh medium, allowed to grow for three doubling times (72 h), and then the protein content measured (proportional to cell survival) using the sulforhodamine B (SRB) assay.
(§2) Cancer Cell Cytotoxicity. After plating, human ovarian A2780 cancer cells were treated with OsII complexes on day 3, and human lung A549 cancer cells on day 2, at concentrations ranging from 0.1 μM to 100 μM. Solutions of the OsII complexes were made up in 0.125% DMSO to assist dissolution. Cells were exposed to the complexes for 24 h, washed, supplied with fresh medium, allowed to grow for three doubling times (72 h), and then the protein content measured (proportional to cell survival) using the sulforhodamine B (SRB) assay.10

[3] = test system: human lung A549 cancer cells; test: Cytotoxicity towards A549 cells, sulforhodamine B (SRB) assay; type: cell-based
Procedure: as §1, §2

[4] = Stability in isotonic saline solutions; type: physicochemical; settings: after 16 days of storage in the dark
Procedure: Stability tests on AFAP42, 64, 62, 05, 51 and 65 in isotonic saline solutions were also performed.

[5] = test system: A549 human lung and A2780 human ovarian cancer cell lines; test: Cytotoxicity in A549 and A2780 cell lines, result not split by cell line; type: cell-based
Procedure: as §1, §2

[6] = Acidity (pKa / pKa*) of coordinated water, 1H NMR pH* titration
Excerpt: pKa* calculations. […] The chemical shifts of the arene ring protons were plotted against pH*. The pH* titration curves were fitted to the Henderson-Hasselbalch equation, with the assumption that the observed chemical shifts are weighted averages according to the populations of the protonated and deprotonated species.

[7] = Stability against formation of hydroxo-bridged dimers; type: physicochemical; settings: for Formation of inert hydroxo-bridged dimers: micromolar concentrations; for Stability with no evidence of dimer formation: 50 μM, even after incubation at 310 K (24 h)
Excerpt: Complexes containing O,O-chelated ligands are deactivated at micromolar concentrations by loss of the chelate and formation of inert hydroxo-bridged dimers.

[8] = extreme conditions of heating, sonicating, exposure to air and extreme sunlight
Procedure: Samples are prepared for testing by initially dissolving in 5% DMSO and subsequently diluting down.

[9] = Hydrolysis (aquation) kinetics followed by 1H NMR; type: physicochemical; settings: for Hydrolysis k/h^−1: 5% MeOD-d4/95% D2O, pH* 2
Procedure: Hydrolysis. […] The rate of hydrolysis was determined by fitting plots of concentrations (determined by ^1H NMR peak integrals) versus time to a pseudo first-order equation using ORIGIN version 5.0 (Microcal Software Ltd.).

[10] = Effect of chloride concentration on aqua adduct formation; type: physicochemical; settings: for % aqua adduct: 1 mM complex in D2O, t = 10 min; for % of aqua complex formed: 1 mM complex
Excerpt: The effects of chloride levels on the distribution of AFAP42 (“prodrug”) and its aqua analogue (“active species”) were investigated. […] Results are summarised in table 6, showing how the hydrolysis of AFAP42 is suppressed in solutions with chloride concentrations similar to those found in blood plasma. At chloride concentrations typical of the cells cytoplasm, complex AFAP42 hydrolyses to some extent and at chloride concentrations typical of the nucleus (where the proposed target, DNA, can be found), the complex is present predominantly as the “active species” the aqua complex.
The effects of chloride concentrations typical of blood plasma (100 mM), cell cytoplasm (22.7 mM) and cell nucleus (4 mM) on the aqueous chemistry of 3 and 6 were investigated. ^1H NMR spectra of 3 or 6 (1 mM) were recorded within 10 min of sample preparation and after incubation at 310 K for 24 h.

9-ethyl guanine (9EtG) = test: Reaction with nucleobase model 9-ethyl guanine, 1H NMR; type: binding; settings: 1 mM complex, 1 mol equivalent 9EtG, D2O
Procedure: (§3) Since DNA is believed to be the main target for metal anticancer drugs, nucleobase binding reactions of compounds 3-6, with nucleobase models, 9-ethyl guanine (9EtG) and 9-ethyl adenine (9EtA), were investigated.
(§4) Solutions of 3-6 (1 mM) (present as an equilibrium between 3-6 and their respective aqua adducts as the major species) with 1 mol equivalent of 9EtG (Table 14) or 9EtA (Table 15) in D2O were prepared and ^1H NMR spectra were taken at different time intervals.
(§5) Interactions with Nucleobases. The reaction of compounds 8-12 with nucleobases typically involved addition of a solution containing 1 mol equiv of nucleobase in D2O, to an equilibrium solution of compounds 8-12 in D2O (>90% aqua). The pH* value of the sample was adjusted if necessary so as to remain close to 7.4 (physiological). ^1H NMR spectra of these solutions were recorded at 298 K after various time intervals.

9-ethyl adenine (9EtA) = test: Reaction with nucleobase model 9-ethyl adenine, 1H NMR; type: binding; settings: 1 mM complex, 1 mol equivalent 9EtA, D2O
Procedure: as §3, §4, §5

[11] = Effect of chloride concentration on aqua adduct formation; type: physicochemical; settings: for % aqua adduct: 1 mM complex in D2O, t = 26 h
[12] = test system: A2780cisR (with acquired cisplatin resistance); settings: MTT, 72 hours exposure, 0 to 128 μM
Procedure: All experiments were made in quadruplicate.
All experiments were performed in quadruplicate.

[13] = Table 7, 24 h exposure, 72 h growth, 2-50 μM, read-out: IC50/μM A2780
[14] = Table 7, 24 h exposure, 72 h growth, 2-50 μM, read-out: IC50/μM A549

NCCN.[Cl][Os+].c1ccc(-c2ccccc2)cc1.c1ccc([B-](c2ccccc2)(c2ccccc2)c2ccccc2)cc1 [(III)]
Activity toward A2780 cells as previously reported [1]: inactive

F[P-](F)(F)(F)(F)F.NCCN.[Cl][Os+].c1ccc(-c2ccccc2)cc1 [AFAP05, [(η^6-bip)Os(en)Cl]PF6]
IC50 [2, 13]: 7 µM
IC50 [3, 14]: 10 µM
Stability of isotonic saline solutions [4]: stable

Cc1ccc(C(C)C)cc1.Cc1ccc2c(c1)[S][Os-]([Cl])[S]2.[Na+] (centres unmarked) [AFAP40, [(η^6-p-cym)Os(S2C7H6)Cl]Na]
Cytotoxicity, A549 and A2780 [5]: showed activity; also recorded: Shows cytotoxicity
Aqueous solubility (Aqueous solubility): very poor

Cc1ccc(C(C)C)cc1.NCC(=O)[O][Os][Cl] [AFAP43]
IC50 [2, 13]: > 100 µM
IC50 [3, 14]: > 100 µM
pKa of water coordinated on hydrolysis (aqua adduct of complex) [6]: 7.17
Formation of inert hydroxo-bridged dimers [7]: form in small amounts

CC(N)C(=O)[O][Os][Cl].Cc1ccc(C(C)C)cc1 [AFAP44]
IC50 [2, 13]: > 100 µM
IC50 [3, 14]: > 100 µM
pKa of water coordinated on hydrolysis (aqua adduct of complex) [6]: 7.05
Formation of inert hydroxo-bridged dimers [7]: form in small amounts

Cc1ccc(C(C)C)cc1.NCCC(=O)[O][Os][Cl] [AFAP49]
IC50 [2, 13]: > 100 µM
IC50 [3, 14]: > 100 µM
pKa of water coordinated on hydrolysis (aqua adduct of complex) [6]: 7.43
Formation of inert hydroxo-bridged dimers [7]: form in small amounts

F[B-](F)(F)F.[Cl][Os-]1[NH2+]CC[NH2+]1.c1ccc(-c2ccccc2)cc1 [AFAP51, [(η^6-bip)Os(en)Cl]BF4]
IC50 [2, 13]: 7.6 µM
IC50 [3, 14]: 10 µM
Cytotoxicity, A549 and A2780 [5]: does show cytotoxicity
pKa of water coordinated on hydrolysis (aqua adduct of complex) [6]: 6.34
Stability of isotonic saline solutions [4]: stable
Stability of solutions in DMSO-d6 [8]: can decompose
Activity toward A2780 cells as previously reported [1]: inactive

CC(C)(N)C(=O)[O][Os][Cl].Cc1ccc(C(C)C)cc1 [AFAP60]
IC50 [2, 13]: > 100 µM
IC50 [3, 14]: > 100 µM
pKa of water coordinated on hydrolysis (aqua adduct of complex) [6]: 7.08
Formation of inert hydroxo-bridged dimers [7]: form in small amounts

Cc1ccnc(C(=O)[O][Os][Cl])c1.c1ccc(-c2ccccc2)cc1 [Compound 6, [(η^6-bip)Os(4-Me-pico)Cl]]
Activity in A2780 cancer cell line [2]: toxic
IC50 ([2]; Table 8, compounds 1-6, read-out: A2780 IC50): 4.4 µM
IC50 ([3]; Table 8, compounds 1-6, read-out: A549 IC50): 10 to 50 µM
pKa* of the aqua adduct [6]: 6.42
Aquation k/h^−1 ([9]; 278 K): 0.17 h⁻¹
Aquation k/h^−1 ([9]; 285 K): 0.44 h⁻¹
Hydrolysis k/h^−1 ([9]; 288 K): 0.710 ± 0.012 h⁻¹ and 0.71 h⁻¹
Hydrolysis k/h^−1 ([9]; 298 K): 2.32 ± 0.08 h⁻¹ and 2.32 h⁻¹
Ea of aquation ([9]; from rates at 278-298 K): 21.65 kcal/mol
ΔH^‡ of aquation ([9]; from rates at 278-298 K): 21 kcal/mol
ΔS^‡ of aquation ([9]; from rates at 278-298 K): −55.56 J K^−1 mol^−1
% aqua adduct ([10]; 4 mM NaCl): 82%
% aqua adduct ([10]; 22.7 mM NaCl): 53%
% aqua adduct ([10]; 100 mM NaCl): 10%
% 9EtG nucleobase adduct (9-ethyl guanine (9EtG); t = 10): 0%
% 9EtG nucleobase adduct (9-ethyl guanine (9EtG); t = 24 h): 80%
% 9EtG nucleobase adduct (9-ethyl guanine (9EtG); t = 72 h): 85%
% 9EtA nucleobase adduct (9-ethyl adenine (9EtA); t = 10): 0%
% 9EtA nucleobase adduct (9-ethyl adenine (9EtA); t = 24 h): 60%
% 9EtA nucleobase adduct (9-ethyl adenine (9EtA); t = 72 h): 60%
% aqua adduct ([11]; 4 mM NaCl): 81%
% aqua adduct ([11]; 22.7 mM NaCl): 53%
% aqua adduct ([11]; 100 mM NaCl): 20%

[Cl][Os-]1[NH2+]CC[NH2+]1.c1ccc(-c2ccccc2)cc1 [[(η^6-bip)Os(en)Cl]^+]
Hydrolysis slower than the equivalent ruthenium complex ([9]; osmium complex versus equivalent ruthenium complex): 40 times
Activity in cisplatin resistant A2780cisR compared with A2780 [12]: even greater activity in the cisplatin resistant cell line

[(η^6-bip)Os(pico)Cl] [AFAP64]
IC50 [2, 13]: 4.2 µM
IC50 [3, 14]: 8 µM
pKa of water coordinated on hydrolysis (aqua adduct of complex) [6]: 6.30
Stability of isotonic saline solutions [4]: stable

[(η^6-p-cym)Os(pico)Cl] [AFAP42]
IC50 [2, 13]: 4.5 µM
IC50 [3, 14]: 17 µM
pKa of water coordinated on hydrolysis (aqua adduct of complex) [6]: 6.62
% of aqua complex formed ([10]; 4 mM [Cl], T = 0): 56.1% Aqua
% of aqua complex formed ([10]; 4 mM [Cl], T = 24 h (310 K)): 65.5% Aqua
% of aqua complex formed ([10]; 22.7 mM [Cl], T = 0): 29.8% Aqua
% of aqua complex formed ([10]; 100 mM [Cl], T = 0): 12% Aqua
% of aqua complex formed ([10]; 100 mM [Cl], T = 24 h (310 K)): 12.9% Aqua
Stability with no evidence of dimer formation [7]: 100%
Stability of isotonic saline solutions [4]: stable
% of aqua complex formed ([11]; 4 mM [Cl], 50 μM complex, T = 0): 73.5% Aqua
% of aqua complex formed ([11]; 4 mM [Cl], 50 μM complex, T = 24 h (310 K)): 72.1% Aqua
% of aqua complex formed ([11]; 22.7 mM [Cl], 50 μM complex, T = 0): 44.8% Aqua
% of aqua complex formed ([11]; 22.7 mM [Cl], 50 μM complex, T = 24 h (310 K)): 45.2% Aqua
% of aqua complex formed ([11]; 22.7 mM [Cl], 1 mM complex, T = 24 h (310 K)): 30.5% Aqua
% of aqua complex formed ([11]; 100 mM [Cl], 50 μM complex, T = 0): 0% Aqua
% of aqua complex formed ([11]; 100 mM [Cl], 50 μM complex, T = 24 h (310 K)): 0% Aqua

[(η^6-p-cym)Os(quin)Cl] [AFAP62]
IC50 [2, 13]: 15 µM and 15.2 µM
IC50 [3, 14]: 60 µM
pKa of water coordinated on hydrolysis (aqua adduct of complex) [6]: 7.52
Stability with no evidence of dimer formation [7]: 100%
Stability of isotonic saline solutions [4]: stable
